{
  "source": "patent US12285407B2",
  "about": "“Bis-indolylmethane derivatives and uses thereof” (The University of The West Indies, priority 2018, dated 2025)",
  "key": {"[1]": {"test_system": "Enterococcus faecium ATCC 19434", "assay": "Broth microdilution MIC of SP-BIMs", "format": "cell-based", "settings": "ATCC19434, SP-BIM alone, read-out: MIC Enterococcus faecium ATCC 19434"}, "[2]": {"test_system": "Corynebacterium diphtheriae ATCC 27010", "assay": "Broth microdilution MIC of SP-BIMs", "format": "cell-based", "settings": "ATCC27010, SP-BIM alone, read-out: MIC Corynebacterium diphtheriae ATCC 27010"}, "[3]": {"test_system": "Staphylococcus aureus ATCC 12600", "assay": "Broth microdilution MIC of SP-BIMs", "format": "cell-based", "settings": "ATCC12600, SP-BIM alone, read-out: MIC Staphylococcus aureus ATCC 12600"}, "[4]": {"test_system": "Escherichia coli ATCC 35218", "assay": "Broth microdilution MIC of SP-BIMs", "format": "cell-based", "settings": "ATCC35218, SP-BIM alone, read-out: MIC Escherichia coli ATCC 35218"}, "[5]": {"test_system": "Pseudomonas aeruginosa ATCC 27853", "assay": "Broth microdilution MIC of SP-BIMs", "format": "cell-based", "settings": "ATCC27853, SP-BIM alone, read-out: MIC Pseudomonas aeruginosa ATCC 27853"}, "[6]": {"test_system": "reference pathogen strains", "assay": "Checkerboard synergy study, summary over pathogens", "format": "cell-based", "settings": "checkerboard with SP-BIM 13"}, "[7]": {"test_system": "α-hemolysin production in Staphylococcus aureus", "format": "cell-based"}, "in vitro": {"assay": "in vitro", "settings": "human"}, "[8]": {"assay": "In vivo acute toxicity (OECD guidelines)", "settings": "one subcutaneous injection, 2000 mg/kg and 300 mg/kg; 14 days"}},
  "data": [
    {"smiles": "Oc1cc(C(c2c[nH]c3ccccc23)c2c[nH]c3ccccc23)cc(O)c1O", "note": "[SP-BIM 13, 5-(di(1H-indol-3-yl)methyl)benzene-1,2,3-triol]", "values": [
      {"measurement": "MIC", "setting": "[1]", "result": 125, "unit": "mg/L"},
      {"measurement": "MIC", "setting": "[2]", "result": "> 250", "unit": "mg/L"},
      {"measurement": "MIC", "setting": "[3]", "result": "> 250", "unit": "mg/L"},
      {"measurement": "MIC", "setting": "[4]", "result": "> 250", "unit": "mg/L"},
      {"measurement": "MIC", "setting": "[5]", "result": 250, "unit": "mg/L"},
      {"measurement": "reduction of most antibiotic MICs", "setting": "[6]; Gram-positive and Gram-negative pathogens", "result": "reduced by tenfold or more"},
      {"measurement": "interaction effect in combinations with trimethoprim", "setting": "[6]", "result": "antagonistic"},
      {"measurement": "lysis of RBCs", "setting": "[7]", "result": "less than 50%"},
      {"measurement": "CC50", "setting": "in vitro", "result": 750, "unit": "µM"},
      {"measurement": "mice deaths", "setting": "[8]", "result": "no mice deaths were recorded"},
      {"measurement": "mice weight and appetite", "setting": "[8]", "result": "did not significantly vary from the untreated mice"}
    ]}
  ]
}
